The values below come from publication PMC4672351, “Drug-Drug Interaction Potentials of Tyrosine Kinase Inhibitors via Inhibition of UDP-Glucuronosyltransferases” (Scientific Reports, 2015).

Series [1] addresses T1, UGT2B7 (Homo sapiens, UniProt P16662).
T1 sequence (P16662 24-529): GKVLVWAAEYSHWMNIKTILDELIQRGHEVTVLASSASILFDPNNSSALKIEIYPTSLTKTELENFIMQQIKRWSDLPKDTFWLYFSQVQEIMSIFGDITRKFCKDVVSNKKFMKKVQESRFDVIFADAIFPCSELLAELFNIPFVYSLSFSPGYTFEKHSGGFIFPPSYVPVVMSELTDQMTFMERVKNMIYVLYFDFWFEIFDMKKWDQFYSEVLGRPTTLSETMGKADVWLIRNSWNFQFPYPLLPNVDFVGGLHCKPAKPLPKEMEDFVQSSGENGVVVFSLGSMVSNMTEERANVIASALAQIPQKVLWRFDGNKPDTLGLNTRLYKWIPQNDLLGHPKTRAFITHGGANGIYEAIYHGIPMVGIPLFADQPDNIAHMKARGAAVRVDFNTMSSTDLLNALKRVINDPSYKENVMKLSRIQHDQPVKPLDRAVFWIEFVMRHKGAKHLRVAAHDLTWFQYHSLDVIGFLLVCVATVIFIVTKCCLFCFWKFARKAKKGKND
Put plainly: Inhibition of 4-MU glucuronidation by recombinant UGT2B7. The following applies: recombinant UGT2B7, pH 7.4, probe 4-MU.

The target in series [2] is T2, UGT1A9 (Homo sapiens, UniProt O60656).
T2 sequence (O60656 26-530): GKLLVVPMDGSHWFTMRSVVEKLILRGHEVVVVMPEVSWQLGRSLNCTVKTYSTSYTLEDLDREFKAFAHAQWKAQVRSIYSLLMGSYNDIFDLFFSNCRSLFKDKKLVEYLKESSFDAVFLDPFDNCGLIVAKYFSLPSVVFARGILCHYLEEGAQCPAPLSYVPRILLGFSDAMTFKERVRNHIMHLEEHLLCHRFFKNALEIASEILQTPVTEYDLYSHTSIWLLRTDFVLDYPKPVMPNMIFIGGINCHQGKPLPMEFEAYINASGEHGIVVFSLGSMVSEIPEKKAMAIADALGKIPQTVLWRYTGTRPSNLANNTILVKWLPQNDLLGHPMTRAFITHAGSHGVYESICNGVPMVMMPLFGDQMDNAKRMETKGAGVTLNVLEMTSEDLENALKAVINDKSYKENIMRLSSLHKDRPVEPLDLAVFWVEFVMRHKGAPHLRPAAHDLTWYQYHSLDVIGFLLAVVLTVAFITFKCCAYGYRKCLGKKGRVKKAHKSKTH
Put plainly: in vitro. As to conditions: recombinant UGT1A9, pH 7.4, probe 4-MU.

For series [3] the following is noted: ref [17][40][45] axitinib, [38][39][46] imatinib, [41][42] lapatinib, [43][44] vandetanib, cited from earlier work; for Cmax: clinical oral dose: axitinib 5 mg/12 h, imatinib 400 mg/24 h, lapatinib 1250 mg/24 h, vandetanib 300 mg/24 h; for Absorption Rate Constant (ka) / Fraction absorbed (Fa) / Oral CL / t1/2: clinical.
For series [4], the target named is T3, UGT2B4 (Homo sapiens, UniProt P06133).
T3 construct: purchased BD Gentest (Woburn, MA); host or cells: baculovirus-infected insect cells
T3 sequence (P06133 24-528): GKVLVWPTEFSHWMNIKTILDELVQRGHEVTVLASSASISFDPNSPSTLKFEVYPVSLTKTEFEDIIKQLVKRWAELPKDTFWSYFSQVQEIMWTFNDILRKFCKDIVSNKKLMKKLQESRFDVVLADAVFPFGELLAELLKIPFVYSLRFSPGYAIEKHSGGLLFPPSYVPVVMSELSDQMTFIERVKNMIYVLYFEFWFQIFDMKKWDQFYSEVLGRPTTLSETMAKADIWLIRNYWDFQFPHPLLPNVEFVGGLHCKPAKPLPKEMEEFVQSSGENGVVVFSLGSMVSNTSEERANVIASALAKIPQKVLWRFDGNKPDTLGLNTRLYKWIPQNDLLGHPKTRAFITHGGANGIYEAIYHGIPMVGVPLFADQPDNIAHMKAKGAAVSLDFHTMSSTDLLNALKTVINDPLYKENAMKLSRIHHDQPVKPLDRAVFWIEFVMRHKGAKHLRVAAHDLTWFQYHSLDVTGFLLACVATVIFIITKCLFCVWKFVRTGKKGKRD
The series can be described thus: Inhibition of 4-MU glucuronidation by recombinant UGT2B4. As to conditions: recombinant UGT2B4, pH 7.4, probe 4-MU, 100 μM inhibitor, 4-MU substrate, read-out: Remaining activities (%) of UGT2B4. It counts as in vitro ADME.

Series [5] can be described thus: Estimation of in vivo TKI concentrations after repeated oral administration. Further details: species or system human. As to conditions: calculated from literature PK parameters.
For series [6], the target named is T4, UGT1A7 (Homo sapiens, UniProt Q9HAW7).
T4 sequence (Q9HAW7 26-530): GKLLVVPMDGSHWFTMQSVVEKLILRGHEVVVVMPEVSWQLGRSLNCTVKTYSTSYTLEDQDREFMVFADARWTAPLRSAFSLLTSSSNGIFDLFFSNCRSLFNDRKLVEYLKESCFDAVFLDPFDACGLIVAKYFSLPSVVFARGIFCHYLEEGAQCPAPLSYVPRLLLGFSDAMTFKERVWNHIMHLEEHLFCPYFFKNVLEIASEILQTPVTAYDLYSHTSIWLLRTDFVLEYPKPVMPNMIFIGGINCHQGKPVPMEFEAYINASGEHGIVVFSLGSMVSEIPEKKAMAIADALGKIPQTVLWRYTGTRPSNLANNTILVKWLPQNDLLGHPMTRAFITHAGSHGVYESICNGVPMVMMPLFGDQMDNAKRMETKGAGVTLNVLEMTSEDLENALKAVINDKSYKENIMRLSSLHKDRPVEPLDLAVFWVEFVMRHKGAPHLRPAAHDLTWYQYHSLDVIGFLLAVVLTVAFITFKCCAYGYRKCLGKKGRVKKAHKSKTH
Put plainly: Inhibition of 4-MU glucuronidation by recombinant UGT1A7. As to conditions: for activity at 30 min, 100 µM: human, recombinant UGT1A7, pH 7.4, probe 4-MU.

The Cmax is the maximum level reached in the sampled fluid or tissue. As usually defined, the IC50 is the point on the concentration scale where inhibition reaches its midpoint.

Structures are written as SMILES. “Also recorded” adds a separate entry of the source.

As for `COc1cc2c(Nc3ccc(Br)cc3F)ncnc2cc1OCC1CCN(C)CC1` [Vandetanib, vandetanib], in series [1], the activity at 120 min, 100 µM was determined as 49.8 ± 3.7%. For the same molecule, the activity at 30 min, 100 µM in series [2] amounted to 14.1 ± 4.7%. Moreover, in series [3], the Cmax is 3.32 µM, the “Absorption Rate Constant (ka)” value was 0.3 h⁻¹, the “Fraction absorbed (Fa)” value is given as 0.935 and the “Oral CL” value was 13.2 L/h. Also, in series [3], the t1/2 was 456 h. The activity at 120 min, 100 µM in series [4] is 80.8 ± 6.6%. Besides, in series [5], the “Calculated Concentrations Iav (average systemic plasma concentration)” value (shortened to “Calculated Concentrations Iav”) is 1.99 µM, the “Calculated Concentrations Iin,u (maximum unbound hepatic input concentration)” value was 0.23 µM and the “Calculated Concentrations Imax,u (maximum unbound systemic plasma concentration)” value is 0.12 µM. In series [6], the IC50 was found to be 38.9 ± 4.3 µM and the activity at 30 min, 100 µM was 22.7 ± 2.7%.

Consider `CS(=O)(=O)CCNCc1ccc(-c2ccc3ncnc(Nc4ccc(OCc5cccc(F)c5)c(Cl)c4)c3c2)o1` [Lapatinib, lapatinib], for which the activity at 120 min, 100 µM in series [1] came out at 90.5 ± 1%. For the same molecule, in series [2], the activity at 30 min, 100 µM is 51.1 ± 7.9%. In series [3], the Cmax is 4.2 µM, the “Absorption Rate Constant (ka)” value is 0.7 h⁻¹, the “Fraction absorbed (Fa)” value is listed as 0.73 and the “Oral CL” value is on record as 114 L/h. In addition, the t1/2 in series [3] is 24 h. In series [4], the activity at 120 min, 100 µM amounted to 105.1 ± 0.2%. In addition, in series [5], the “Calculated Concentrations Iav” value was 0.79 µM, the “Calculated Concentrations Iin,u (maximum unbound hepatic input concentration)” value was 0.12 µM and the “Calculated Concentrations Imax,u (maximum unbound systemic plasma concentration)” value was 0.011 µM. Moreover, in series [6] (4-MU substrate), the “inhibition type, UGT1A7” value is reported as “non-competitive; also recorded: noncompetitive”. Besides, the activity at 30 min, 100 µM in series [6] turned out to be 37.7 ± 9.3%.

As to `CNC(=O)c1ccccc1Sc1ccc2c(/C=C/c3ccccn3)n[nH]c2c1` [Axitinib, axitinib], the activity at 120 min, 100 µM in series [1] turned out to be 55.9 ± 9.7%. In addition, in series [2], the activity at 30 min, 100 µM turned out to be 44.8 ± 0.2%. Besides, in series [3], the highest concentration (Cmax) was 0.16 µM, the “Absorption Rate Constant (ka)” value is 0.523 h⁻¹, the “Fraction absorbed (Fa)” value is 0.88 and the “Oral CL” value was 45 L/h. The t1/2 in series [3] was 3.2 h. Besides, the activity at 120 min, 100 µM in series [4] came to 42.1 ± 1.6%. In series [5], the “Calculated Concentrations Iav” value was 0.024 µM, the “Calculated Concentrations Iin,u (maximum unbound hepatic input concentration)” value was 0.00086 µM and the “Calculated Concentrations Imax,u (maximum unbound systemic plasma concentration)” value was 0.00067 µM. Besides, in series [6], the IC50 worked out at 3.3 ± 0.7 µM and the activity at 30 min, 100 µM amounted to 25 ± 2.5%.
